Laboratory results published in paper PMC9101087, “A Sensitive LC-MS/MS Method for the Simultaneous Determination of Two Thia-Analogous Indirubin N-Glycosides and Indirubin-3′-Monoxime in Plasma and Cell Culture Medium” (Molecules, 2022).

Tests used:
[1] = Storage stability in human plasma, LC-MS/MS after plasma precipitation; assay type: in vitro ADME; settings: for Stability 4 °C / Stability AS (autosampler) / Stability −20 °C / Stability BT (benchtop): 24 h; for Stability FT (freeze-thaw): freeze-thaw cycles; for Stability BT (benchtop): room temperature
Method: To assess stability, low and high concentrations of all analytes were subjected to different storage conditions. […] For determination of long-term stability, samples were stored in either plasma or DMEM at –80 °C for 90 and 91 days, respectively. To measure short-term stability, samples were stored at room temperature, in an autosampler, at 4 °C, and at –20 °C for 24 h. In addition, freeze-thaw cycles were performed according to FDA guidance for the standard solutions. For comparison, at least three freshly prepared samples were prepared for each concentration level. With the exception of autosampler stability, the internal standard was always added to all samples before sample processing was started.
After mixing the 1.5 µM internal standard and the plasma sample, protein precipitation was commenced. Next, 190 µL of acetonitrile and 50 µL of 0.5 M sulfuric acid buffer were added. The tubes were then shaken at 1400 rpm for 5 min followed by centrifugation at 14,000 rpm for 5 min. Subsequently, 195 µL of the supernatant was transferred to an LC tube and analyzed.
To assess stability, low and high concentrations of all analytes were exposed to different storage conditions. To determine long-term stability, samples were stored in either plasma or DMEM at −80 °C for 90 and 91 days, respectively. To determine short-term stability, samples were stored for 24 h on the bench at room temperature, in the autosampler, at 4 °C, and at −20 °C. In addition, freeze-thaw cycles were performed for the standard solutions according to FDA guidance. At least three freshly prepared samples per concentration level were prepared for comparison. With the exception of the stability test in the autosampler, the internal standard was always added to all samples before sample processing was started. However, to avoid concentration fluctuations due to possible degradation of the analytes, stock solutions were prepared twice a week and stored at −20 °C. Each storage condition was examined in the dark. For all conditions studied, n = 3–6 replicates were prepared.

U251MG (glioblastoma) = experiment: WST-1 cell viability assay, 48-h incubation; assay type: cell-based, human; settings: WST-1, 48 h, vs. vehicle, even at 3 µM in some (unnamed) cell lines
Method: To test the biological activity of the thia-analogous indirubin N-glycosides that are the focus of the present work, the effects of KD87 and KD85 and their non-glycosylated parent compound KD88 on the viability of various tumor cell lines were initially investigated. The corresponding analyses were performed using the cell lines A375 (melanoma), A431 (skin squamous cell carcinoma), A549 (non-small cell lung carcinoma), U251MG (glioblastoma), and U138MG (glioblastoma).
Figure 2 Effect of increasing concentrations of KD87 (A), KD85 (B), and KD88 (C) on viability of various cancer cells. A375 (melanoma; black columns), A431 (skin squamous cell carcinoma; dark grey columns), A549 (non-small cell lung carcinoma; grey columns), U251MG (glioblastoma; light grey columns), or U138MG (glioblastoma; white columns) were incubated for 48 h with the appropriate compounds or vehicle followed by determination of cell viability by WST-1 assay. Percent control represents comparison with vehicle-treated cells (100%) in the absence of test substance. Values are mean ± standard error of the mean (SEM) of n = 15 in all panels, except n = 14 for A375 and A431 cells in panel B and n = 14–15 for A375 cells in panel C, from four (A375, A431) or five (A549, U251MG, U138MG) independent experiments. * p ≤ 0.05, ** p ≤ 0.01, *** p ≤ 0.001, **** p ≤ 0.0001 vs. vehicle control; one-way ANOVA with Dunnett’s post hoc test.
The human melanoma cell line A375 (#300110; RRID:CVCL_0132) as well as the human skin epidermoid carcinoma cell line A431 (#300112; RRID:CVCL_0037) were purchased from CLS Cell Lines Service GmbH (Eppelheim, Germany). The human glioblastoma cell line U251MG (#09063001; RRID:CVCL_0021) was from Sigma-Aldrich Corporation. The human glioblastoma cell line U138MG (#ACC 291; RRID: CVCL_0020) and the human lung carcinoma cell line A549 (#ACC 107, RRID:CVCL_0023) were purchased from DSMZ (Deutsche Sammlung von Mikroorganismen und Zellkulturen GmbH, Braunschweig, Germany).
Cells were cultured in high-glucose DMEM (with GlutaMAX™-I: A375, A431; with UltraGlutamine^TM I: A549, U251MG, U138MG) supplemented with 10% heat-inactivated FBS, 100 U/mL penicillin, and 100 μg/mL streptomycin and grown in a humidified incubator at 37 °C and 5% CO2. For viability analyses, cells were seeded in 96-well plates at a density of 5000 cells per well in DMEM containing 10% heat-inactivated FBS and cultured for 24 h. All cell experiments with the specific substances were performed in serum-free DMEM supplemented with 100 U/mL penicillin and 100 μg/mL streptomycin, applied after washing the cells with DPBS. The test substances were dissolved in DMSO. The final concentration of DMSO in the incubation media of test substance- and vehicle-treated cells was 1% (v/v).
After completion of the 48-h incubation, WST-1 reagent (Sigma, Taufkirchen, Germany) was added to the cells to achieve a final dilution of 1:10, and the cells were incubated for an additional 20 min before absorbance was measured at 450 nm, reference wavelength […], using a microplate reader.

Structure (SMILES) | Stability 4 °C ([1]; 2.0 nM) | Stability AS (autosampler) ([1]; 2.0 nM) | Stability −20 °C ([1]; 2.0 nM) | Stability FT (freeze-thaw) ([1]; 2.0 nM) | Stability BT (benchtop) ([1]; 2.0 nM) | Stability 4 °C ([1]; 167 nM) | Stability AS (autosampler) ([1]; 167 nM) | Stability −20 °C ([1]; 167 nM) | Stability FT (freeze-thaw) ([1]; 167 nM) | Stability BT (benchtop) ([1]; 167 nM) | concentration from which significant cytotoxic effects start (U251MG (glioblastoma))
O=C1/C(=C2/C(=O)N([C@@H]3O[C@H](CO)[C@@H](O)[C@H](O)[C@@H]3O)c3ccccc32)Sc2ccccc21 [KD85, 3-[3′-oxo-benzo[b]thiophene-2′-(Z)-ylidene]-1-(β-D-mannopyranosyl)-oxindole] | 81.3 ± 3.4% | 97.6 ± 8.0% | 90.1 ± 5.7% | 107.9 ± 4.9% | 57.5 ± 4.1% | 85.5 ± 1.9% | 99.6 ± 4.1% | 96.3 ± 2.3% | 99.5 ± 3.8% | 70.3 ± 3.2% | ≤ 6 µM
O=C1/C(=C2/C(=O)N([C@@H]3O[C@H](CO)[C@@H](O)[C@H](O)[C@H]3O)c3ccccc32)Sc2ccccc21 [KD87, 3-[3′-oxo-benzo[b]thiophen-2′-(Z)-ylidene]-1-(β-D-glucopyranosyl)-oxindole] | 81.4 ± 3.1% | 105.7 ± 6.7% | 94.6 ± 2.8% | 98.8 ± 5.6% | 64.3 ± 5.6% | 84.5 ± 2.0% | 99.9 ± 4.8% | 92.6 ± 2.6% | 97.9 ± 4.1% | 75.0 ± 3.5% | ≤ 6 µM
